Values quoted from earlier work, collected in patent US20230346652A1, “Foaming Hand Sanitizer with High Alcohol Content” (Ele' Corporation, priority 2021, published 2023).

Key:
[1] = test system: certain non-enveloped viruses

SMILES: CCO [ethanol]
- ethanol concentration necessary to kill within 30 seconds [1]: up to 95%
- ethanol concentration effective within 30 seconds (enveloped viruses): less than 75 % (by weight)
